Data published in US20230372498A1, “PLK1 SELECTIVE DEGRADATION INDUCING COMPOUND” (UPPTHERA, priority 2020, published 2023).

Target: T1, PLK1 (Homo sapiens, UniProt P53350)
T1 construct: endogenous in cells; host or cells: HeLa
Test: PLK1 protein degradation in HeLa cells, Western blotting (PLK1/GAPDH ratio)
Type: cell-based
Conditions: 6 hours compound incubation; for DC50: measured only if the grade of Dmax is A or B; for Dmax: thymidine block and release, 10 points three-fold from 3 μM, PLK1 to GAPDH ratio, read-out: Dmax
Method in brief: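 Thymidine-synchronised HeLa cells (2 mM, 24 h) released 4 h into complete medium, then treated 6 h with compound in 10-point 3-fold dilutions from 3 μM. RIPA lysates (15 μg protein) run on SDS-PAGE; PLK1 Western blot normalised to GAPDH.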

T1 sequence (P53350 whole entry): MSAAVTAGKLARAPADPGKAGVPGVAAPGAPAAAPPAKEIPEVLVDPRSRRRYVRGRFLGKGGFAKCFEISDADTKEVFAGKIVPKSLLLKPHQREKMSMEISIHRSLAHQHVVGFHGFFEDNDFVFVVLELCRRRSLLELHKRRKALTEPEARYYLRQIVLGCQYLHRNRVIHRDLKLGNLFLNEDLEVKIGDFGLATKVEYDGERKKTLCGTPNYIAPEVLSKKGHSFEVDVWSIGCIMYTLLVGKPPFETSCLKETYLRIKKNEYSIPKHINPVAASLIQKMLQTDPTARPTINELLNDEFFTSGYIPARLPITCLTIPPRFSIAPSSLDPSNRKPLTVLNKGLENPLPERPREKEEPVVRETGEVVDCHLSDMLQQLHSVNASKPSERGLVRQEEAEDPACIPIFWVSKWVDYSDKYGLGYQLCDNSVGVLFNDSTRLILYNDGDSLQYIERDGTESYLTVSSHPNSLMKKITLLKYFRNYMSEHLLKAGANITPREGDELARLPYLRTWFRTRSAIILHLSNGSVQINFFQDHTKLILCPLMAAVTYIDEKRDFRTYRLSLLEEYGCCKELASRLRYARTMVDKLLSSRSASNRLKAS

| DC50 | Dmax | Compound |
| --- | --- | --- |
| ≤ 50 nM | ≥ 80% | COc1cc(C(=O)NC2CN(CCOCCOCCNc3cccc4c3C(=O)N(C3CCC(=O)NC3=O)C4=O)C2)c(F)cc1Nc1ncc2c(n1)N(C1CCCC1)CC(F)(F)C(=O)N2C (centres unmarked) [Compound 123, 4-((9-cyclopentyl-7,7-difluoro-5-methyl-6-oxo-6,7,8,9-tetrahydro-5H-pyrimido[4,5-b][1,4]diazepin-2-yl)amino)-N-(1-(2-(2-(2-((2-(2,6-dioxopiperidin-3-yl)-1,3-dioxoisoindolin-4-yl)amino)ethoxy)ethoxy)ethyl)azetidin-3-yl)-2-fluoro-5-methoxybenzamide] |
| ≤ 500 nM | 60 to 80% | COc1cc(C(=O)NCC2CCCN2CCOCCNc2cccc3c2C(=O)N(C2CCC(=O)NC2=O)C3=O)c(F)cc1Nc1ncc2c(n1)N(C1CCCC1)CC(F)(F)C(=O)N2C (centres unmarked) [Compound 124, 4-((9-cyclopentyl-7,7-difluoro-5-methyl-6-oxo-6,7,8,9-tetrahydro-5H-pyrimido[4,5-b][1,4]diazepin-2-yl)amino)-N-((1-(2-(2-((2-(2,6-dioxopiperidin-3-yl)-1,3-dioxoisoindolin-4-yl)amino)ethoxy)ethyl)pyrrolidin-2-yl)methyl)-2-fluoro-5-methoxybenzamide] |
| ≤ 50 nM | ≥ 80% | COc1cc(C(=O)NCC2CCCN(CCOCCNc3cccc4c3C(=O)N(C3CCC(=O)NC3=O)C4=O)C2)c(F)cc1Nc1ncc2c(n1)N(C1CCCC1)CC(F)(F)C(=O)N2C (centres unmarked) [Compound 125, 4-((9-cyclopentyl-7,7-difluoro-5-methyl-6-oxo-6,7,8,9-tetrahydro-5H-pyrimido[4,5-b][1,4]diazepin-2-yl)amino)-N-((1-(2-(2-((2-(2,6-dioxopiperidin-3-yl)-1,3-dioxoisoindolin-4-yl)amino)ethoxy)ethyl)piperidin-3-yl)methyl)-2-fluoro-5-methoxybenzamide] |
| ≤ 500 nM | 60 to 80% | COc1cc(C(=O)NCC2CCCCN2CCOCCNc2cccc3c2C(=O)N(C2CCC(=O)NC2=O)C3=O)c(F)cc1Nc1ncc2c(n1)N(C1CCCC1)CC(F)(F)C(=O)N2C (centres unmarked) [Compound 126, 4-((9-cyclopentyl-7,7-difluoro-5-methyl-6-oxo-6,7,8,9-tetrahydro-5H-pyrimido[4,5-b][1,4]diazepin-2-yl)amino)-N-((1-(2-(2-((2-(2,6-dioxopiperidin-3-yl)-1,3-dioxoisoindolin-4-yl)amino)ethoxy)ethyl)piperidin-2-yl)methyl)-2-fluoro-5-methoxybenzamide] |
| ≤ 500 nM | 60 to 80% | COc1cc(C(=O)NC2CCN(CCOCCNC(=O)COc3cccc4c3C(=O)N(C3CCC(=O)NC3=O)C4=O)C2)c(F)cc1Nc1ncc2c(n1)N(C1CCCC1)CC(F)(F)C(=O)N2C (centres unmarked) [Compound 127, 4-((9-cyclopentyl-7,7-difluoro-5-methyl-6-oxo-6,7,8,9-tetrahydro-5H-pyrimido[4,5-b][1,4]diazepin-2-yl)amino)-N-(1-(2-(2-(2-((2-(2,6-dioxopiperidin-3-yl)-1,3-dioxoisoindolin-4-yl)oxy)acetamido)ethoxy)ethyl)pyrrolidin-3-yl)-2-fluoro-5-methoxybenzamide] |
| ≤ 50 nM | ≥ 80% | COc1cc(C(=O)NC2CCN(C(=O)CCN3CCN(c4cccc5c4C(=O)N(C4CCC(=O)NC4=O)C5=O)CC3)CC2)ccc1Nc1ncc2c(n1)N(C1CCCC1)CC(F)(F)C(=O)N2C (centres unmarked) [Compound 128, 4-((9-cyclopentyl-7,7-difluoro-5-methyl-6-oxo-6,7,8,9-tetrahydro-5H-pyrimido[4,5-b][1,4]diazepin-2-yl)amino)-N-(1-(3-(4-(2-(2,6-dioxopiperidin-3-yl)-1,3-dioxoisoindolin-4-yl)piperazin-1-yl)propanoyl)piperidin-4-yl)-3-methoxybenzamide] |
| ≤ 50 nM | ≥ 80% | CN1C(=O)C(F)(F)CN(C2CCCC2)c2nc(Nc3ccc(C(=O)NC4CCN(C(=O)CCN5CCN(c6cccc7c6C(=O)N(C6CCC(=O)NC6=O)C7=O)CC5)CC4)cc3)ncc21 (centres unmarked) [Compound 129, 4-((9-cyclopentyl-7,7-difluoro-5-methyl-6-oxo-6,7,8,9-tetrahydro-5H-pyrimido[4,5-b][1,4]diazepin-2-yl)amino)-N-(1-(3-(4-(2-(2,6-dioxopiperidin-3-yl)-1,3-dioxoisoindolin-4-yl)piperazin-1-yl)propanoyl)piperidin-4-yl)benzamide] |
| ≤ 50 nM | ≥ 80% | COc1cc(C(=O)N[C@H]2CCN(C(=O)CN3CCN(c4cccc5c4C(=O)N(C4CCC(=O)NC4=O)C5=O)CC3)C2)c(F)cc1Nc1ncc2c(n1)N(C1CCCC1)CC(F)(F)C(=O)N2C (some centres unmarked) [Compound 130] |
| ≤ 50 nM | ≥ 80% | COc1cc(C(=O)N[C@H]2CCN(C(=O)CCN3CCN(c4cccc5c4C(=O)N(C4CCC(=O)NC4=O)C5=O)CC3)C2)c(F)cc1Nc1ncc2c(n1)N(C1CCCC1)CC(F)(F)C(=O)N2C (stereo partly drawn) [Compound 131, 4-((9-cyclopentyl-7,7-difluoro-5-methyl-6-oxo-6,7,8,9-tetrahydro-5H-pyrimido[4,5-b][1,4]diazepin-2-yl)amino)-N-((3S)-1-(3-(4-(2-(2,6-dioxopiperidin-3-yl)-1,3-dioxoisoindolin-4-yl)piperazin-1-yl)propanoyl)pyrrolidin-3-yl)-2-fluoro-5-methoxybenzamide] |
| ≤ 50 nM | ≥ 80% | COc1cc(C(=O)N[C@@H]2CCN(C(=O)CCN3CCN(c4cccc5c4C(=O)N(C4CCC(=O)NC4=O)C5=O)CC3)C2)c(F)cc1Nc1ncc2c(n1)N(C1CCCC1)CC(F)(F)C(=O)N2C (stereo partly drawn) [Compound 132, 4-((9-cyclopentyl-7,7-difluoro-5-methyl-6-oxo-6,7,8,9-tetrahydro-5H-pyrimido[4,5-b][1,4]diazepin-2-yl)amino)-N-((3R)-1-(3-(4-(2-(2,6-dioxopiperidin-3-yl)-1,3-dioxoisoindolin-4-yl)piperazin-1-yl)propanoyl)pyrrolidin-3-yl)-2-fluoro-5-methoxybenzamide] |
| ≤ 50 nM | ≥ 80% | COc1cc(C(=O)N[C@@H]2CCN(C(=O)CCCN3CCN(c4cccc5c4C(=O)N(C4CCC(=O)NC4=O)C5=O)CC3)C2)c(F)cc1Nc1ncc2c(n1)N(C1CCCC1)CC(F)(F)C(=O)N2C (stereo partly drawn) [Compound 133, 4-((9-cyclopentyl-7,7-difluoro-5-methyl-6-oxo-6,7,8,9-tetrahydro-5H-pyrimido[4,5-b][1,4]diazepin-2-yl)amino)-N-((3R)-1-(4-(4-(2-(2,6-dioxopiperidin-3-yl)-1,3-dioxoisoindolin-4-yl)piperazin-1-yl)butanoyl)pyrrolidin-3-yl)-2-fluoro-5-methoxybenzamide] |
| ≤ 50 nM | ≥ 80% | COc1cc(C(=O)N[C@@H]2CCN(C(=O)CCCCN3CCN(c4cccc5c4C(=O)N(C4CCC(=O)NC4=O)C5=O)CC3)C2)c(F)cc1Nc1ncc2c(n1)N(C1CCCC1)CC(F)(F)C(=O)N2C (stereo partly drawn) [Compound 134, 4-((9-cyclopentyl-7,7-difluoro-5-methyl-6-oxo-6,7,8,9-tetrahydro-5H-pyrimido[4,5-b][1,4]diazepin-2-yl)amino)-N-((3R)-1-(5-(4-(2-(2,6-dioxopiperidin-3-yl)-1,3-dioxoisoindolin-4-yl)piperazin-1-yl)pentanoyl)pyrrolidin-3-yl)-2-fluoro-5-methoxybenzamide] |
| ≤ 50 nM | ≥ 80% | COc1cc(C(=O)N[C@H]2CCN(C(=O)CN3CCN(c4ccc5c(c4)C(=O)N(C4CCC(=O)NC4=O)C5=O)CC3)C2)c(F)cc1Nc1ncc2c(n1)N(C1CCCC1)CC(F)(F)C(=O)N2C (stereo partly drawn) [Compound 135, 4-((9-cyclopentyl-7,7-difluoro-5-methyl-6-oxo-6,7,8,9-tetrahydro-5H-pyrimido[4,5-b][1,4]diazepin-2-yl)amino)-N-((3S)-1-(2-(4-(2-(2,6-dioxopiperidin-3-yl)-1,3-dioxoisoindolin-5-yl)piperazin-1-yl)acetyl)pyrrolidin-3-yl)-2-fluoro-5-methoxybenzamide] |
| ≤ 50 nM | ≥ 80% | COc1cc(C(=O)N[C@H]2CCN(C(=O)CCN3CCN(c4ccc5c(c4)C(=O)N(C4CCC(=O)NC4=O)C5=O)CC3)C2)c(F)cc1Nc1ncc2c(n1)N(C1CCCC1)CC(F)(F)C(=O)N2C (stereo partly drawn) [Compound 136, 4-((9-cyclopentyl-7,7-difluoro-5-methyl-6-oxo-6,7,8,9-tetrahydro-5H-pyrimido[4,5-b][1,4]diazepin-2-yl)amino)-N-((3S)-1-(3-(4-(2-(2,6-dioxopiperidin-3-yl)-1,3-dioxoisoindolin-5-yl)piperazin-1-yl)propanoyl)pyrrolidin-3-yl)-2-fluoro-5-methoxybenzamide] |
| ≤ 50 nM | ≥ 80% | COc1cc(C(=O)N[C@@H]2CCN(C(=O)CCN3CCN(c4ccc5c(c4)C(=O)N(C4CCC(=O)NC4=O)C5=O)CC3)C2)c(F)cc1Nc1ncc2c(n1)N(C1CCCC1)CC(F)(F)C(=O)N2C (stereo partly drawn) [Compound 137, 4-((9-cyclopentyl-7,7-difluoro-5-methyl-6-oxo-6,7,8,9-tetrahydro-5H-pyrimido[4,5-b][1,4]diazepin-2-yl)amino)-N-((3R)-1-(3-(4-(2-(2,6-dioxopiperidin-3-yl)-1,3-dioxoisoindolin-5-yl)piperazin-1-yl)propanoyl)pyrrolidin-3-yl)-2-fluoro-5-methoxybenzamide] |
| ≤ 50 nM | ≥ 80% | COc1cc(C(=O)N[C@@H]2CCN(C(=O)CCCN3CCN(c4ccc5c(c4)C(=O)N(C4CCC(=O)NC4=O)C5=O)CC3)C2)c(F)cc1Nc1ncc2c(n1)N(C1CCCC1)CC(F)(F)C(=O)N2C (stereo partly drawn) [Compound 138, 4-((9-cyclopentyl-7,7-difluoro-5-methyl-6-oxo-6,7,8,9-tetrahydro-5H-pyrimido[4,5-b][1,4]diazepin-2-yl)amino)-N-((3R)-1-(4-(4-(2-(2,6-dioxopiperidin-3-yl)-1,3-dioxoisoindolin-5-yl)piperazin-1-yl)butanoyl)pyrrolidin-3-yl)-2-fluoro-5-methoxybenzamide] |
